One series deals with CYP2C19 (Homo sapiens, UniProt P33261). In words: CYP inhibition cocktail assay in pHLM, CYP2C19 (omeprazole). Conditions: inhibitor 20 µM, omeprazole 21 µM, pHLM 0.4 mg/mL, 15 min; control without inhibitor = 100%. On the procedure:
(§1) A modified dual-cocktail based method (Dinger et al. [2014b]) was used. Substrate cocktail A consisted of 8.9 µM dextromethorphan (CYP2D6), 86 µM testosterone (CYP3A4), 3.5 µM diclofenac (CYP2C9), and 12 µM phenacetin (CYP1A2). Substrate cocktail B included 30 µM bupropion (CYP2B6), 2 µM amodiaquine (CYP2C8) and 21 µM omeprazole (CYP2C19). Substrate concentrations were near their respective Michaelis–Menten constant (Km) values (Dinger et al. [2014a]) and all concentrations are final. Enzyme inhibition was investigated using a positive control, a test group, a control group, an interference group, and a negative control. In the test group, specific inhibitors were replaced by MDPM (20 µM). Instead of inhibitors, phosphate buffer was used in the control group. Enzymes were replaced with phosphate buffer in the negative control group. The interference group was incubated like the control group, but the reaction was stopped with 20 µM MDPM in acetonitrile, also containing 2.5 µM trimipramine-d3. All groups were incubated with a NADPH-regenerating system, consisting of 5 mM isocitrate, 2 U/mL isocitrate dehydrogenase, 5 mM Mg^2+, and 1.2 mM NADP^+. Further, substrate cocktail A or B, 90 mM phosphate buffer (pH 7.4), and 200 U/mL superoxide dismutase were added to each group. […] All groups were preincubated for 10 min at 37 °C. Then, pHLM (0.4 mg microsomal protein/mL) was added to each group except the negative control. Incubations were done for 15 min at 37 °C. Therefore, 50 µL of acetonitrile (− 20 °C) containing 2.5 µM trimipramine-d3 as internal standard was added. Incubations were done in triplicates and organic solvent in the incubation mixture was below 1% (Chauret et al. [1998]). Afterwards the samples were vortexed and centrifuged for 2 min at 18,407×g. 70 µL of the supernatant were transferred to autosampler vials and 10 µL were injected onto the LC-HRMS/MS system. Enzyme inhibition was evaluated by metabolite formation. […] The following settings were used: unpaired; one-tailed; significance level, 0.05; confidence intervals, 99%.

A short description of series [1]: In vitro metabolism by HepaRG cells. The class given is in vitro ADME, human. The conditions noted are these: MDPM 25 µM and 250 µM, tentative identification. The procedure: Cell incubations were performed in a monolayer assay as previously described (Richter et al. [2019]) and in accordance with the manufacturer’s instructions. HepaRG cells were thawed and resuspended in 13.5 mL (~ 740,000 cells/mL) thaw and seed medium at 37 °C. Thaw and seed medium consisted of Williams E medium, 100 U/mL penicillin, 100 µg/mL streptomycin, GlutaMAX and HPRG670 supplement. Cells were handled under sterile conditions using a laminar flow bench class II (Thermo Scientific, TF, Schwerte, Germany). Aliquots of 100 µL cell suspension were seeded on collagen-coated 96-well plates (~ 74,000 cells/well). Evaporation was minimized by filling the outer wells with 100 µL thaw and seed medium. Cells were preincubated for 4 h in an incubator (Binder, Tuttlingen, Germany) at 37 °C, 95% air humidity, and 5% CO2. After preincubation, 50 µL of the thaw and seed medium was replaced with 50 µL MDPM solution (25 µM and 250 µM final concentrations), followed by an incubation for 24 h at 37 °C, 95% air humidity, and 5% CO2 atmosphere. MDMA or quetiapine (25 µM and 250 µM final concentrations, respectively) were incubated as positive controls. All incubations were done in triplicates. Each well contained 0.5% (v/v) DMSO. […]

The nature of series [2]: In vitro metabolism by pooled human liver microsomes. The conditions noted are these: MDPM 25 µM, pHLM 1 mg/mL, 60 and 120 min; tentative identification. The class given is in vitro ADME. The procedure:
Incubations with pHLM were in accordance with previous publications and minor modifications (Richter et al. [2017]). First, 2.5 mM isocitrate, 0.8 U/mL isocitrate dehydrogenase, 100 U/mL superoxide dismutase, 0.6 mM NADP^+, 2.5 mM Mg^2+ and pHLM (1 mg microsomal protein/mL) were preincubated for 10 min at 37 °C. […] Substances were incubated for 60 and 120 min at 37 °C. All concentrations are final concentrations, and incubations were done in duplicates. 50 µL aliquots were transferred to a new reaction tube at both timepoints. The reaction was stopped by adding 30 µL acetonitrile (− 20 °C) with 2.5 µM trimipramine-d3 as an internal standard. Negative control samples without enzymes and blank samples without substrates were performed to identify not metabolically formed compounds and to confirm the absence of interfering compounds.

A short description of series [3]: In vitro metabolism by pooled human liver S9 fraction. The class given is in vitro ADME. Conditions: MDPM 25 µM, pHLS9 2 mg/mL, 60 and 360 min; tentative identification. On the procedure: Incubations with pHLS9 were performed in accordance with previous publications and minor adjustments (Richter et al. [2017]). First, 25 μg/mL alamethicin (UGT reaction mix B), pHLS9 (2 mg microsomal protein/mL), 0.1 mM AcCoA, 2.3 mM acetylcarnitine, 8 U/mL carnitine acetyltransferase, 2.5 mM isocitrate, 0.8 U/mL isocitrate dehydrogenase, 100 U/mL superoxide dismutase, 0.6 mM NADP^+ and 2.5 mM Mg^2+ were preincubated for 10 min at 37 °C. Then, 2.5 mM UDP-glucuronic acid (UGT reaction mix A), 40 µM PAPS, 1.2 mM SAM, 1 mM DTT and 10 mM GSH were added. The reaction was started by adding the respective substrate MDPM, MDMA, or quetiapine (25 µM each). MDMA and quetiapine were incubated as positive controls. Negative control samples without enzymes and blank samples without substrates were incubated to identify not metabolically formed compounds and to confirm the absence of interfering compounds. […] Aliquots (50 µL) were transferred to a new reaction tube after 60 and 360 min. […] Samples were vortexed, stored at − 20 °C for 30 min, and centrifuged for 2 min at 18,407×g.

The target of series [4] is T1, CYP2D6 (Homo sapiens, UniProt P10635). The experiment in a line: Monooxygenase mapping (ten human cDNA-expressed CYP isoforms and FMO3). Conditions: MDPM 25 µM, CYP 50 pmol/mL each or FMO3 0.25 mg protein/mL, 90 and 270 min. The class given is in vitro ADME. More on the design: Then, pHLM (0.4 mg microsomal protein/mL) was added to each group except the negative control; tissue Discovery Life Sciences; host or cells: pooled human liver microsomes, 25 donors. On the procedure: As described elsewhere (Wagmann et al. [2016]) and with minor modifications, MDPM (25 µM) was incubated with 2.5 mM isocitrate, 0.8 U/mL isocitrate dehydrogenase, 100 U/mL superoxide dismutase, 0.6 mM NADP^+, 2.5 mM Mg^2+ and CYP1A2, CYP2A6, CYP2B6, CYP2C8, CYP2C9, CYP2C19, CYP2D6, CYP2E1, CYP3A4, CYP3A5 (50 pmol/mL each), or FMO3 (0.25 mg protein/mL) for 90 and 270 min at 37 °C. For incubations with CYP2A6 or CYP2C9, phosphate buffer was replaced with 90 mM Tris buffer, according to the manufacturer’s guideline. Thirty µL aliquots were taken at both timepoints. The reaction was stopped using 20 µL acetonitrile (− 20 °C) with 2.5 µM trimipramine-d3 as an internal standard. All incubations were done in duplicates and concentrations are final. […] Negative control samples without enzymes and blank samples without substrate were incubated to identify not metabolically formed compounds and to confirm the absence of interfering compounds.
T1 sequence (P10635 whole entry, canonical isoform): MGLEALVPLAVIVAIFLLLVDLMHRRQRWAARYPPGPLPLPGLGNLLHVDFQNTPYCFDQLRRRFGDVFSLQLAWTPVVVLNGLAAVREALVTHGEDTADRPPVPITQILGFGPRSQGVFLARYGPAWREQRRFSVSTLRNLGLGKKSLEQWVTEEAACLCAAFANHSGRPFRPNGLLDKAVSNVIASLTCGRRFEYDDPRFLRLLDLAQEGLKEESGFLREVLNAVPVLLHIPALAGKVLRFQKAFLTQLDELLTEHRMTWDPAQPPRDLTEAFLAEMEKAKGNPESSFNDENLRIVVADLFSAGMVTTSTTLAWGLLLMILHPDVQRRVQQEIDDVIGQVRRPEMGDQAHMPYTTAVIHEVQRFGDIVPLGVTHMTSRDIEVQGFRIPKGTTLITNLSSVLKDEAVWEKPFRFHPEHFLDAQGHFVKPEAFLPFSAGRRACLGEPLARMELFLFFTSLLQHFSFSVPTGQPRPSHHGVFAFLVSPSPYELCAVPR

For series [5] the following is noted: cited from earlier work.
For series [6] the following is noted: ref Alberto-Silva et al. 2024; cited from earlier work.
The target of series [7] is T1, CYP2D6. In words: CYP inhibition cocktail assay in pHLM, CYP2D6 (dextromethorphan). The conditions noted are these: inhibitor 20 µM, dextromethorphan, pHLM; versus control without inhibitor. The procedure:
as §1

The next series deals with T2, CYP2B6 (Homo sapiens, UniProt P20813).
T2 sequence (P20813 1-491): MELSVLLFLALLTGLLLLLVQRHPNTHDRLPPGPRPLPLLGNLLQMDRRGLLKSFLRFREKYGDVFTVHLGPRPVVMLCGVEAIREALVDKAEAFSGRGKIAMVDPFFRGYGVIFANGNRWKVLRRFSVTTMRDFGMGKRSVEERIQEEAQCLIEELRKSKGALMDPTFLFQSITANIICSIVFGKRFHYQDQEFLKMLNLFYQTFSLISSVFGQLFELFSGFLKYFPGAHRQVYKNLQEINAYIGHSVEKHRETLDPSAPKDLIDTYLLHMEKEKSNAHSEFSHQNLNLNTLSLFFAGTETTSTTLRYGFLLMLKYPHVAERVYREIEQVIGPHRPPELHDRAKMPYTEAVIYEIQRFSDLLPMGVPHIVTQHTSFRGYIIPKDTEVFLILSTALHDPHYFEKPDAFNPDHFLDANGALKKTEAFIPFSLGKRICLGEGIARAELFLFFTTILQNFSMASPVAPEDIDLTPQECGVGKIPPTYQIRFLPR
In words: CYP inhibition cocktail assay in pHLM, CYP2B6 (bupropion). The conditions noted are these: inhibitor 20 µM, bupropion 30 µM, pHLM 0.4 mg/mL, 15 min; control without inhibitor = 100%. The procedure: as §1

A further series concerns the target CYP2C9 (Homo sapiens, UniProt P11712). The experiment in a line: CYP inhibition cocktail assay in pHLM, CYP2C9 (diclofenac). The conditions noted are these: inhibitor 20 µM, diclofenac 3.5 µM, pHLM 0.4 mg/mL, 15 min; control without inhibitor = 100%. The procedure:
as §1

The subject of series [8] is CYP2C8. The conditions noted are these: 100 µM trimethoprim; ref Niemi et al. 2004; cited from earlier work.
In series [9] the target is T3, CYP2C8 (Homo sapiens, UniProt P10632).
T3 sequence (P10632 1-490): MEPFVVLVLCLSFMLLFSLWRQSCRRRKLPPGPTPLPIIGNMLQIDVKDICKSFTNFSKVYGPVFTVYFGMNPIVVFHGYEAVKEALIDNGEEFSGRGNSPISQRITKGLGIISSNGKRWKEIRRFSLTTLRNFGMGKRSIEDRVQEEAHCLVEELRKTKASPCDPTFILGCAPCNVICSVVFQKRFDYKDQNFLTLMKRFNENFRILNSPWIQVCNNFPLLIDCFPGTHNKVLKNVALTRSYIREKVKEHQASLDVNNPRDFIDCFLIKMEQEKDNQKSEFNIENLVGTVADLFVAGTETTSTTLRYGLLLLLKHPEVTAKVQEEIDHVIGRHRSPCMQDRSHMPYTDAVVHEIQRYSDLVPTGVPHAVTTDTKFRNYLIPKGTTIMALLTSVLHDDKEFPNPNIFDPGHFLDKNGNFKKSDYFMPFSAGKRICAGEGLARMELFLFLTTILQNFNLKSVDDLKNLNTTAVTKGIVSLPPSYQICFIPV
In words: CYP inhibition cocktail assay in pHLM, CYP2C8 (amodiaquine). The conditions noted are these: inhibitor 100 µM, amodiaquine 2 µM, pHLM 0.4 mg/mL, 15 min; control without inhibitor = 100%. The procedure: as §1

Where two headings read alike, the source gives them in different places. Some results are limits rather than exact numbers.

CYP2C9, sequence (P11712 whole entry): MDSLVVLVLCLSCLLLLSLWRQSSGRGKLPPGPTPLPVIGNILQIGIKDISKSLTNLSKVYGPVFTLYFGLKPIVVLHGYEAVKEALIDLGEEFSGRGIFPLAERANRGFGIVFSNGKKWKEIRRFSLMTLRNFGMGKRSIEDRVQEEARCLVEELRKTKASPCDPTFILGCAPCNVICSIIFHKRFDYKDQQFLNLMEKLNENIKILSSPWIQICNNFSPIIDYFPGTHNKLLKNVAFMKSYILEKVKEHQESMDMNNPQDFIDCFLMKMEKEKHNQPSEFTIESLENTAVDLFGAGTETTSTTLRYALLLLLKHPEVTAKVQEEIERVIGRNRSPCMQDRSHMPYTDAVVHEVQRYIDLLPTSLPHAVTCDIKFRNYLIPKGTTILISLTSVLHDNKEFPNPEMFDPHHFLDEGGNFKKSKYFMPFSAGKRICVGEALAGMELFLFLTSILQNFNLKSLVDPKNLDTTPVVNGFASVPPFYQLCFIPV
CYP2C19, sequence (P33261 whole entry): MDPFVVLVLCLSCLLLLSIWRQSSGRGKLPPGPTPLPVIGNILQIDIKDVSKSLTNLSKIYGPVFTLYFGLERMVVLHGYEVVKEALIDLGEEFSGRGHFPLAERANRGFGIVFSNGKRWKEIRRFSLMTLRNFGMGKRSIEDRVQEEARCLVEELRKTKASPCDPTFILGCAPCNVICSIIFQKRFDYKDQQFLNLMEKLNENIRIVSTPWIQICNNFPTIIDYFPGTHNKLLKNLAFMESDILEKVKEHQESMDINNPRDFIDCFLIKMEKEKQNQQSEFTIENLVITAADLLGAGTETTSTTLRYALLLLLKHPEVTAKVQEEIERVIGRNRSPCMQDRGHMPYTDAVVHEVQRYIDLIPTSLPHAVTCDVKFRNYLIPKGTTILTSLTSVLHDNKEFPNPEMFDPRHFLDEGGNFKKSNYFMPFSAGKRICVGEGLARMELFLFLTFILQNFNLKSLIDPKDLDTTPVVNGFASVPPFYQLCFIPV

On to `OC(Cn1cncn1)(Cn1cncn1)c1ccc(F)cc1F` [Fluconazole, fluconazole, reference compound], for which, at CYP2C19, the CYP2C19 metabolite formation worked out at 48%.
Regarding `CC1NCCOC1c1ccc(O)c(O)c1` (stereo not drawn) [M1, Demethylenyl-MDPM], in [1], the “metabolite detection in HepaRG incubations” value is recorded as “could not be identified”. Further, the “metabolite detection in pHLM incubations” value in [2] is recorded as “found”. Also, the “metabolite detection in pHLS9 incubations” value in [3] was “could not be identified”. At CYP2D6 [4], the “isozymes forming the demethylenyl metabolite (O-demethylenation of MDPM)” value is reported as “only found in CYP2D6 incubations”.
As for `COc1cc(C2OCCNC2C)ccc1O` (stereo not drawn) [M2], in series [3], the “metabolite detection in pHLS9 incubations” value is recorded as “found”.
With `CNC(C)Cc1ccc2c(c1)OCO2` (stereo not drawn) [MDMA, 3,4-methylenedioxymethamphetamine], in [5] (ref Wan Aasim et al. 2017), the “plasma protein binding (PPB)” value is 43–51%. In addition, the in vitro half-life entry in series [6] was “over 150 min”.
With `C=C[C@H]1C[N@@]2CC[C@H]1C[C@@H]2[C@@H](O)c1ccnc2ccc(OC)cc12` [Quinidine, quinidine, reference compound], the “decrease in CYP2D6 activity (inhibition)” value at CYP2D6 [7] came out at 99%.
For `CN[C@H]1CC[C@@H](c2ccc(Cl)c(Cl)c2)c2ccccc21` [Sertraline, sertraline, reference compound], at CYP2B6, the CYP2B6 metabolite formation came to 24%.
Turning to `Nc1ccc(S(=O)(=O)Nc2ccnn2-c2ccccc2)cc1` [Sulfaphenazole, sulfaphenazole, reference compound], the CYP2C9 metabolite formation at CYP2C9 turned out to be 9%.
`COc1cc(Cc2cnc(N)nc2N)cc(OC)c1OC` [Trimethoprim, trimethoprim, reference compound]: in the series with CYP2C8 [8], the “maximum inhibition of CYP2C8 activity” value is on record as at most 40%. Further, the CYP2C8 metabolite formation at CYP2C8 [9] was determined as 81%.
Regarding `CC(N)Cc1ccccc1` (stereo not drawn) [amphetamine], the “plasma protein binding (PPB)” value in [5] (ref Franksson and Anggard 1970, Losacker et al. 2021) is 20–30%.
Turning to `CC1NCCOC1c1ccccc1` (stereo not drawn) [phenmetrazine], the “plasma protein binding (PPB)” value in series [5] (ref Franksson and Anggard 1970) is 20%.

(Values after publication PMC11968506, “Toxicokinetics and analytical toxicology of the phenmetrazine-derived new psychoactive substance 3,4-methylenedioxyphenmetrazine studied by means of in vitro systems” (Archives of Toxicology, 2025).)
